Results taken from patent US8349851B2, “JAK kinase modulating compounds and methods of use thereof” (Ambit Biosciences Corp., priority 2009, dated 2013).
pIC50, pKd: −log10 of the molar value.

Assays:
[1] = test system: csTF-1 cells (GM-CSFR/JAK2/STAT5 pathway); test: csTF-1 cell-based reporter assay; parameters: species or system human; conditions: Homo sapiens; GM-CSF at 2 ng/mL, 4 hours; read-out: Cell Assay: CS0017: CS TF-1 reporter assay: IC50
Experimental: csTF-1 Cell-based Reporter Assay
csTF-1 cells are derived from the human erythroleukemia cell line that is growth dependent on GM-CSF and has an intact GM-CSFR/JAK2/STAT5 pathway. The cell line contains stably integrated beta-lactamase reporter gene under the control of the […] (irf 1) response element recognized by the activated transcription factor STATS. csTF-1 cells (Invitrogen K1219) were washed with assay media (97% OPTIMEM/0.5% dialyzed FBS/0.1 mM NEAA/1 mM Na pyr/P/S) and seeded in the same media at 5×10^5 cell/mL in T150 flask. After 16 hour incubation, cells were seeded at 2×10^5 cell/well in 50 μl volume, into Costar, clear bottom, 96-well assay plates. Serial dilutions of compounds were added to the plates with final DMSO concentration at 0.5% and GM-CSF at 2 ng/mL and the plates were then incubated at […] and 5% CO2 for 4 hours. The plates were brought to room temperature before adding Substrate Mixture according to manufacturer's protocol (Invitrogen, Catalog #K1085). The assay plates containing the substrate mixture were incubated in the dark at room temperature for 2 hours. Blue and green fluorescence was measured with excitation at 409 nm and emission at 460 nm (for blue) and excitation at 409 nm and emission at 530 nm (for green) using Spectra Max Gemini EM.

[2] = biological target: T1, JAK3 (Homo sapiens, UniProt P52333); test: Competition binding assay, JAK3; conditions: read-out: Binding Assay: JAK3 (active_KD, ENZ)
T1 construct: made in house
T1 sequence (P52333 822-1111 limits assumed): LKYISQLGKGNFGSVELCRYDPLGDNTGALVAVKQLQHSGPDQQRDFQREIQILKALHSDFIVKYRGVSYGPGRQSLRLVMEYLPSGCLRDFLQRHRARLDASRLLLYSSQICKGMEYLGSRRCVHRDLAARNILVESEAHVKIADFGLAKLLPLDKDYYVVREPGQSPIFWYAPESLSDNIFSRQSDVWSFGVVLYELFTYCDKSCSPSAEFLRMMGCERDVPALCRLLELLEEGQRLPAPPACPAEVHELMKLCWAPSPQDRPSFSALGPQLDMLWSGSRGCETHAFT
Source text: (§1) Competition Binding Assay to Determine Binding Constants (Kd) of the Compounds Against JAK Kinases
(§2) Competition binding assays used herein were developed, validated and performed as described in Fabian et al., Nature Biotechnology 2005, 23,329-336. Kinases were produced as fusions to T7 phage (See, Fabian et al. or WO04/015142) or alternatively, the kinases were expressed in HEK-293 cells and subsequently tagged with DNA for PCR detection (See, WO08/005310). For the binding assays, streptavidin-coated magnetic beads were treated with biotinylated affinity ligands for 30 min at rt to generate affinity resins. The liganded beads were blocked with excess biotin and washed with blocking buffer (SeaBlock (Pierce), 1% BSA, 0.05% Tween 20, 1 mM DTT) to remove unbound ligand and to reduce non-specific binding. […] Test compounds were prepared as 100× stocks in DMSO and rapidly diluted into the aqueous environment. DMSO was added to control assays lacking a test compound. Primary screen interactions were performed in polypropylene 384-well plates in a final volume of 34 μL, while Kd determinations were performed in polystyrene 96-well plates in a final volume of 135 μL. […] The kinase concentration in the eluates was measured by quantitative PCR. Each kinase was tested individually against each compound. Kds were determined using eleven serial threefold dilutions. A selectivity score, which is a quantitative measure of selectivity of a compound against a panel of enzymes, may be calculated for a compound by dividing the number of enzymes for which a compound meets a set criteria, (for example, a binding constant of 100 nM or less), by the total number of enzymes tested.

[3] = biological target: T2, JAK2 (Homo sapiens, UniProt O60674); test: Competition binding assay, JAK2; conditions: read-out: Binding Assay: JAK2 (active_KD)
T2 construct: made in house
T2 sequence (O60674 849-1124 limits assumed): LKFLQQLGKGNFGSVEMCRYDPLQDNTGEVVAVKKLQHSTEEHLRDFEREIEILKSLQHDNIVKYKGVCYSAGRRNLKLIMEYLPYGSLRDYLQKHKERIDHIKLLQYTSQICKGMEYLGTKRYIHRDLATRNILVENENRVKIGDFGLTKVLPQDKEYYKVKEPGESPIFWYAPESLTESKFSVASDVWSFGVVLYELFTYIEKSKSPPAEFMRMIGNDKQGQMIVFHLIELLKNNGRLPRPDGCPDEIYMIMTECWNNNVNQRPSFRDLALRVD
Source text: as §1, §2

Row | Compound | pIC50 [1] | pKd [2] | pKd [3]
1 | Cc1cc(Nc2nc(C(O)c3ccc(F)cc3)nc3ccc(F)cc23)n[nH]1 (racemic) [Example 54, (R,S)-(6-fluoro-4-(5-methyl-1H-pyrazol-3-ylamino)quinazolin-2-yl)(4-fluorophenyl)methanol] | 6.30 to 7.00 | < 7.00 | 8.00 to 9.00
2 | OC(c1ccc(F)cc1)c1nc(Nc2cc[nH]n2)c2cc(F)ccc2n1 (racemic) [Example 55, (R,S)-(4-(1H-pyrazol-3-ylamino)-6-fluoroquinazolin-2-yl)(4-fluorophenyl)methanol] | < 6.30 | < 7.00 | 8.00 to 9.00
3 | OC(c1ccc(F)cc1)c1nc(Nc2cc[nH]n2)c2ccc(Br)cc2n1 (racemic) [Example 58, (R,S)-(4-(1H-pyrazol-3-ylamino)-7-bromoquinazolin-2-yl)(4-fluorophenyl)methanol] | 6.30 to 7.00 | < 7.00 | 8.00 to 9.00
4 | Cc1cc(Nc2nc(C(O)c3ccc(F)cc3)nc3c(F)cccc23)n[nH]1 (racemic) [Example 61, (R,S)-(8-fluoro-4-(5-methyl-1H-pyrazol-3-ylamino)quinazolin-2-yl)(4-fluorophenyl)methanol] | 6.30 to 7.00 | 7.00 to 8.00 | ≥ 9.00
5 | COc1ccccc1C(O)c1nc(Nc2cc(C)[nH]n2)c2ccccc2n1 (racemic) [Example 63, (R,S)-(2-methoxyphenyl)(4-(5-methyl-1H-pyrazol-3-ylamino)quinazolin-2-yl)methanol] | 6.30 to 7.00 | 7.00 to 8.00 | 8.00 to 9.00
6 | Cc1cc(Nc2nc(C(O)c3ccc(F)c(F)c3)nc3ccccc23)n[nH]1 (racemic) [Example 66, (R,S)-(3,4-difluorophenyl)(4-(5-methyl-1H-pyrazol-3-ylamino)quinazolin-2-yl)methanol] | 6.30 to 7.00 | ≥ 8.00 | ≥ 9.00
7 | [2H]C(O)(c1ccc(F)cc1)c1nc(Nc2cc(C)[nH]n2)c2ccccc2n1 (racemic) [Example 72, (R,S) (4-fluorophenyl)(4-(5-methyl-1H-pyrazol-3-ylamino)quinazolin-2-yl)methanol-1-d] | ≥ 7.00 |  | 
8 | CCc1cc(Nc2nc(C(O)c3ccc(F)cc3)nc3ccccc23)n[nH]1 (racemic) [Example 74, (R,S)-(4-(5-ethyl-1H-pyrazol-3-ylamino)quinazolin-2-yl)(4-fluorophenyl)methanol] |  |  | ≥ 9.00
9 | Cc1cc(Nc2nc(C(O)c3ccc(F)c(O)c3)nc3ccccc23)n[nH]1 (racemic) [Example 78, (R,S)-(2-fluoro-5-(hydroxy(4-(5-methyl-1H-pyrazol-3-ylamino)quinazolin-2-yl)methyl)phenol acetate] |  |  | ≥ 9.00
10 | Fc1ccc(C(F)(F)c2nc(Nc3cc[nH]n3)c3ccc(F)cc3n2)cc1 [Example 21, 2-(difluoro(4-fluorophenyl)methyl)-7-fluoro-N-(1H-pyrazol-3-yl)quinazolin-4-amine] | 6.30 to 7.00 | 7.00 to 8.00 | 8.00 to 9.00
11 | O=C(c1ccc(F)cc1)c1nc(Nc2cc[nH]n2)c2ccc(I)cc2n1 [Example 22, (4-(1H-pyrazol-3-ylamino)-7-iodoquinazolin-2-yl)(4-fluorophenyl)methanone] | 6.30 to 7.00 | < 7.00 | 8.00 to 9.00
12 | Cc1ccc2c(Nc3cc[nH]n3)nc(C(F)(F)c3ccc(F)cc3)nc2c1 [Example 27, 2-(difluoro(4-fluorophenyl)methyl)-7-methyl-N-(1H-pyrazol-3-yl)quinazolin-4-amine] | ≥ 7.00 | 7.00 to 8.00 | ≥ 9.00
13 | Cc1cc(Nc2nc(C(F)(F)c3ccc(F)cc3)nc3cc(CO)ccc23)n[nH]1 [Example 49, (2-(difluoro(4-fluorophenyl)methyl)-4-(5-methyl-1H-pyrazol-3-ylamino)quinazolin-7-yl)methanol] | ≥ 7.00 | ≥ 8.00 | ≥ 9.00
14 | Cc1cc(Nc2nc(C(=O)c3ccc(F)cc3)nc3ccc(F)cc23)n[nH]1 [Example 53, (6-fluoro-4-(5-methyl-1H-pyrazol-3-ylamino)quinazolin-2-yl)(4-fluorophenyl)methanone] | 6.30 to 7.00 | < 7.00 | 8.00 to 9.00
15 | Cc1cc(Nc2nc(C(=O)c3ccc(F)cc3)nc3cc(Br)ccc23)n[nH]1 [Example 56, (7-bromo-4-(5-methyl-1H-pyrazol-3-ylamino)quinazolin-2-yl)(4-fluorophenyl)methanone] | 6.30 to 7.00 | 7.00 to 8.00 | 8.00 to 9.00
16 | Cc1cc(Nc2nc(C(O)c3ccc(F)cc3)nc3cc(Br)ccc23)n[nH]1 (stereo not shown) [Example 57, (7-bromo-4-(5-methyl-1H-pyrazol-3-ylamino)quinazolin-2-yl)(4-fluorophenyl)methanol] | 6.30 to 7.00 |  | 8.00 to 9.00
17 | Cc1cc(Nc2nc(C3(c4ccc(F)cc4)OCCO3)nc3ccccc23)n[nH]1 [Example 59, 2-(2-(4-fluorophenyl)-1,3-dioxolan-2-yl)-N-(5-methyl-1H-pyrazol-3-yl)quinazolin-4-amine] | ≥ 7.00 | 7.00 to 8.00 | ≥ 9.00
18 | Cc1cc(Nc2nc(C(=O)c3ccc(F)cc3)nc3c(F)cccc23)n[nH]1 [Example 60, (8-fluoro-4-(5-methyl-1H-pyrazol-3-ylamino)quinazolin-2-yl)(4-fluorophenyl)methanone] | 6.30 to 7.00 | < 7.00 | 8.00 to 9.00
19 | COc1ccccc1C(=O)c1nc(Nc2cc(C)[nH]n2)c2ccccc2n1 [Example 62, (2-methoxyphenyl)(4-(5-methyl-1H-pyrazol-3-ylamino)quinazolin-2-yl)methanone] | 6.30 to 7.00 | < 7.00 | 8.00 to 9.00
20 | Cc1cc(Nc2nc(C(O)c3cccc(F)c3)nc3ccccc23)n[nH]1 (stereo not shown) [Example 64, (3-fluorophenyl)(4-(5-methyl-1H-pyrazol-3-ylamino)quinazolin-2-yl)methanol] | 6.30 to 7.00 | 7.00 to 8.00 | 8.00 to 9.00
21 | Cc1cc(Nc2nc(C(NC=O)c3ccc(F)cc3)nc3ccccc23)n[nH]1 (stereo not shown) [Example 65, N-((4-fluorophenyl)(4-(5-methyl-1H-pyrazol-3-ylamino)quinazolin-2-yl)methyl)formamide] | 6.30 to 7.00 | 7.00 to 8.00 | ≥ 9.00
22 | Cc1cc(Nc2nc(C(O)c3ccc(F)c(Cl)c3)nc3ccccc23)n[nH]1 (stereo not shown) [Example 67, (3-chloro-4-fluorophenyl)(4-(5-methyl-1H-pyrazol-3-ylamino)quinazolin-2-yl)methanol] | 6.30 to 7.00 | ≥ 8.00 | ≥ 9.00
23 | Cc1cc(Nc2nc(C(CC#N)c3ccc(F)cc3)nc3ccccc23)n[nH]1 (stereo not shown) [Example 68, 3-(4-fluorophenyl)-3-(4-(5-methyl-1H-pyrazol-3-ylamino)quinazolin-2-yl)propanenitrile] | ≥ 7.00 | 7.00 to 8.00 | 8.00 to 9.00
24 | Cc1cc(Nc2nc(C(NC3CC3)c3ccc(F)cc3)nc3ccccc23)n[nH]1 (stereo not shown) [Example 69, 2-((cyclopropylamino)(4-fluorophenyl)methyl)-N-(5-methyl-1H-pyrazol-3-yl)quinazolin-4-amine] | 6.30 to 7.00 | 7.00 to 8.00 | ≥ 9.00
25 | Cc1cc(Nc2nc(C(CS(C)(=O)=O)c3ccc(F)cc3)nc3ccccc23)n[nH]1 (stereo not shown) [Example 70, 2-(1-(4-fluorophenyl)-2-(methylsulfonyl)ethyl)-N-(5-methyl-1H-pyrazol-3-yl)quinazolin-4-amine] | 6.30 to 7.00 | 7.00 to 8.00 | ≥ 9.00
26 | COc1cc(C(=O)c2nc(Nc3cc(C)[nH]n3)c3ccccc3n2)ccc1F [Example 76, (4-fluoro-3-methoxyphenyl)(4-(5-methyl-1H-pyrazol-3-ylamino)quinazolin-2-yl)methanone] |  |  | < 8.00
27 | Cc1cc(Nc2nc(C(=O)c3ccc(F)c(O)c3)nc3ccccc23)n[nH]1 [Example 77, (4-fluoro-3-hydroxyphenyl)(4-(5-methyl-1H-pyrazol-3-ylamino)quinazolin-2-yl)methanone] |  |  | < 8.00
